Data on two compounds can be found in US20180369195A1, “COMBINATION THERAPY FOR TREATMENT OF MELANOMA” (The Regents of the University of California, priority 2015, published 2018).

In one experiment the test system is DM738 melanoma cells. The experiment in a line: CCK-8 proliferation assay, DM738. Type of experiment: cell-based, human. As to the method:
(§1) The same treatment regime was repeated on multiple melanoma cell lines with 20 μM 1-benzyl I3C and 200 μM I3C for 48 hours to compare the relative sensitivities of the different cell lines with distinct mutation profiles to 1-benzyl I3C and I3C. Cells were treated with 20 μM 1-benzyl I3C every 24 hours for 72 hours and harvested at 24, 48 and 72 hours for western blot and flow cytometric analysis. Cells were treated with 20 μM LiCl or 10 μM BIO for 48 hours before harvesting them for western blots.
(§2) To study the effect of I3C, cells were treated with or without 200 μM I3C every 24 hours for 72 hours and harvested at 24, 48 and 72 hours for western blot and flow cytometric analysis.
(§3) Subsequently inhibition of proliferation was assessed using Cell counting Kit-8 (Dojindo) as per the protocol in the user's manual. Briefly, 50 μl of the CCK-8 solution was added to each well along with 450 μl media and incubated for 2-3 hours. The absorbance was read at 450 nm and % inhibition was calculated for each condition standardizing DMSO to zero using the formula: [(100−Value of treatment/Value of DMSO treated control)×100]

Another experiment relates to MITF-M promoter. The experiment can be described thus: MITF-M promoter luciferase reporter assay. In kind it is cell-based, human. The settings on record: G361 cells, 24 hours. As to the method: G361 Melanoma cells were cultured to approximately 80% confluency in 6 well adherent culture plates in triplicates for each experimental condition for 24 hours. The cells were then transiently transfected with either a wild-type pGL2-pMITF-333/+120-luciferase reporter plasmid or a similar plasmid with the LEF-1/TCF binding site mutated at −199. pGL2-pMITF-333/+120-ΔLEF-1-luciferase, (ALEF-1) was generated using the following primers: LEF-1 forward, 5′-[…]-3′ (SEQ ID NO:5) and LEF-1 reverse, 5′-[…]-3′ (SEQ ID NO:6).
PCR conditions used were as follows: 30 s hotstart at 95° C., 30 s at 95° C., 1 min at 55° C., 8 min at 68° C. for 16 cycles. Mutagenesis was performed using QuickChange II kit (Aligent) per the manufacturer's instructions. PCR products were extracted and purified using QIAquick Gel Extraction Kit (Qiagen). Sequence was confirmed by automated DNA sequencing (University of California Berkeley Sequencing Facility). […] 20 μl of supernatant from each sample was combined with 100 μl luciferase substrate (Promega) and emitted fluorescence was measured using luminometer, Lumat LB 9507 (EG&G Berthold) and the relative light units (RLU) were recorded. The RLU/μg for each sample was calculated by dividing the data obtained with their specific protein concentration determined by a Bradford assay using 1× BioRad Protein Assay reagent and measuring O.D at 595 nm.
Background: In a reporter assay the amount or activity of a reporter protein is the signal.

Another experiment deals with G-361 melanoma cells. The experiment can be described thus: CCK-8 proliferation assay, G-361. Type of experiment: cell-based, human. As to the method: as §1, §2, §3
A general note: Tetrazolium dyes change colour on reduction, which living cells bring about.

Experiment [1] concerns G-361 cell-derived tumor xenografts. The experiment in a line: G-361 melanoma tumor xenograft growth in athymic nude mice. Type of experiment: in vivo. As to the method:
Approximately 1 million G361 melanoma cells in a total volume of 0.1 ml of Matrigel were injected subcutaneously into each lateral flank of NIH III athymic nude mice. The resulting tumors were allowed to grow to a mean starting volume of 146±10 mm^3. […] The resulting tumor volumes were measured every other day for four weeks using calipers. The tumor volumes were calculated using the standard formula: (Width×Length)/2, and changes in tumor volumes were calculated using the formula: 100+{(Tf−Ti)/Ti×100}, where Tf is the final mean tumor volume and Ti is the initial mean tumor volume. At terminal sacrifice, tumor xenografts were harvested, and a portion of each tumor was fixed in 4% para-formaldehyde for 1 hour at room temperature, followed by a phosphate-buffered saline (PBS) wash and subsequently immersed in […] overnight at 4° C. The resulting tissues were embedded in OCT and 10 μm thin sections were taken for immunofluorescence studies.

The test system of another experiment is MITF-M. The experiment can be described thus: MITF-M protein levels in cultured melanoma cells (western blot, immunofluorescence). Type of experiment: cell-based, human. As to the method:
Western Blot analyses of samples electrophoretically fractionated on 12% acrylamide gels were carried out as previously described (Wagle et al., J. Clin. Oncol. 2011. 29(22):3085-3096; Nguyen et al., Chem. Biol. Interact. 2010. 186(3):255-266). Enhanced chemiluminescence (ECL) Lightening reagents were used to visualize the primary antibody bound protein bands in nitrocellulose membranes and the results captured on ECL Autoradiography Film (GE Healthcare, Piscataway, N.J.). The western blots employed the following primary antibodies: mouse anti-MITF-M (Thermo-scientific), mouse anti-HSP 90 (BD Biosciences), mouse anti-CDK2, rabbit anti-CDK4, rabbit anti-CDK-6, mouse anti-rabbit BRAF, goat anti-LEF-1, rabbit anti-AXIN, mouse anti-BCL2, (Santa Cruz), rabbit anti-P21, mouse anti-Cyclin D1, rabbit anti-MEK-p, rabbit anti-MEK1/2, rabbit anti-GSK3β rabbit anti-LRP6, rabbit anti-LRP6-phospho (Cell signaling), mouse anti-β-catenin (Invitrogen).
In general terms: In western blotting, separated proteins are transferred to a membrane and probed.

The next experiment has as its system MITF-M transcript. The experiment can be described thus: RT-PCR analysis of MITF-M transcripts. In kind it is cell-based, human. The settings on record: for MITF-M transcript levels: 200 μM I3C, 72 hour time course. As for the experimental part:
Total RNA was extracted from harvested cells using the RNeasy extraction kit for mammalian cells (obtained from Qiagen, Hercules, Calif.) and spectrophotometrically quantified by absorbance at 260 nm. Reverse transcription (RT) reactions were carried out using RT-MMLV reverse transcriptase (Invitrogen, Eugene, Oreg.) and the cDNA was used for polymerase chain reaction (PCR) reactions using 10 pM of the following primers: MITF-M forward 5′ CCGTCTCTCACTGGATTGGT 3′ (SEQ ID NO:1), MITF-M Reverse 5′ TACTTGGTGGGGTTTTCGAG 3′ (SEQ ID NO:2) GAPDH forward, […] (SEQ ID NO:3) and reverse, […] (SEQ ID NO:4). PCR conditions were as follows: 30 s at 94° C., 30 s at 55° C. and 30 s at 72° C. for 28 cycles. PCR products were electrophoretically fractionated in 1.5% agarose gels containing 0.01% Gel Red (Biotium) for DNA staining along with 1 kb plus DNA ladder (Thermo Scientific) and further visualized by a UV transilluminator.

The mark [2] stands for this setting: 200 μM I3C, 72 hours, BRAF-V600E.

Entries after “also recorded” stand apart in the source; their conditions may differ. Some results are limits rather than exact numbers.

On to `OCc1cn(Cc2ccccc2)c2ccccc12` [1-benzyl I3C, 1-benzyl indole-3-carbinol], for which the “fold lower concentration than I3C” value was 10-20 fold with DM738 melanoma cells (48 hours); 10-20 fold in the experiment on G-361 melanoma cells (48 hours); > 10 fold in the experiment on G-361 melanoma cells (48 hours, listed as 1-Benzyl I3C). In addition, the “optimum concentration for antiproliferation” value in the experiment on DM738 melanoma cells (48 hours) and with G-361 melanoma cells (48 hours) was 10 to 20 µM each time. Also, the “antiproliferation compared with I3C” value was “significantly greater antiproliferation than I3C” in the experiment on DM738 melanoma cells (varying doses, 48 hours) and “significantly greater antiproliferation than I3C” with G-361 melanoma cells (varying doses, 48 hours). The “MITF-M promoter activity (luciferase reporter, WT)” value in the experiment on MITF-M promoter (20 μM 1-benzyl I3C) is recorded as “Luciferase activity was significantly abrogated”. Also, the tumor growth result in experiment [1] (1-benzyl I3C 20 mg/kg body weight subcutaneously everyday, 4-week time course, vs vehicle) is reported as “strongly attenuated tumor growth”. The “size of the residual tumors at termination of treatment” value in experiment [1] (1-benzyl I3C 20 mg/kg, week 4) is “significantly smaller than the vehicle control”. In addition, the “MITF-M protein levels (western blot)” value in the experiment with MITF-M (G361 and DM738 cells, 1-benzyl I3C, 24, 48, 72 hours) was “significant downregulation of MITF-M”; in the experiment on MITF-M (SK-MEL-2 cells (WT BRAF), 1-benzyl I3C, 24, 48, 72 hours) it was “significant inhibitory effect on MITF-M protein levels”. In addition, in the experiment on MITF-M transcript (G-361, DM738, SK-MEL-2 cells, 1-benzyl I3C), the MITF-M transcript level result was “concomitant inhibition of MITF-M transcript level”.

On to `OCc1c[nH]c2ccccc12` [I3C, indole-3-carbinol], for which the “sensitivity to anti-proliferative effects” value in the experiment with DM738 melanoma cells (setting [2]) and in the experiment on G-361 melanoma cells (setting [2]) was “Most sensitive” throughout. For the same compound, the “optimum concentration for antiproliferation” value in the experiment with DM738 melanoma cells (48 hours) and in the experiment with G-361 melanoma cells (48 hours) was 200 to 300 µM each time. Also, in the experiment with MITF-M promoter (200 μM I3C), the “MITF-M promoter activity (−333/+120 luciferase reporter, WT)” value is on record as “strongly down regulated MITF-M promoter activity”. This compound had a proliferative arrest in the experiment on G-361 melanoma cells (200 μM I3C, submaximal 24 hours, empty vector transfected or untransfected cells) of 60%. Moreover, in experiment [1] (I3C 200 mg/kg body weight injected daily, four-week course, vs DMSO vehicle), the tumor growth result is given as “strongly inhibited tumor growth”. Also, the “MITF-M protein levels (western blot)” value is reported as “strongly down-regulated MITF-M levels” in the experiment on MITF-M (G-361 and DM738 cells, varying concentrations of I3C, 48 hours); “down regulated” with MITF-M (G-361 cells, 48 hours, 200 μM I3C, 10 μM Vemurafenib or 10 μM U0126); “expressed high levels of MITF-M protein at all concentrations of I3C; also recorded: no downregulation of MITF-M levels” with MITF-M (SK-MEL-2 cells (wild type BRAF), I3C). For the same compound, the MITF-M transcript levels result in the experiment with MITF-M transcript (G-361 and DM738 cells) is given as “strongly down regulated MITF-M transcript levels”; with MITF-M transcript (SK-MEL-2 cells), “modest increase in MITF-M transcript levels”.
